For experiment [1], the system named is human SKM-1 acute myeloid leukemia cells. Nature of the experiment: SKM-1 antiproliferation cell-based assay (ATPlite). As to conditions: Homo sapiens. The method, boiled down:
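Log-phase cells in RPMI 1640/15% FBS were seeded at 34722 cells/mL and exposed for 4 days to nine-concentration DMSO serial dilutions in triplicate. Viability was read as ATP luminescence (ATPlite 1step), and IC50 values came from variable-slope non-linear regression.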

In experiment [2] the target is T1, human BRD4 bromodomain II (Homo sapiens, UniProt O60885).
T1 construct: human BRD4 bromodomain II [based on Genbank NM_058243, residues 349-460]; host or cells: E. coli
Nature of the experiment: Bromodomain binding assay (AlphaScreen), BRD4 BDII. The method, boiled down:
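AlphaScreen competition with biotinylated H4 peptide (aa 1-21, K5/K8/K12/K16Ac), using nickel-chelate acceptor and streptavidin donor beads. Targets were His6-BRD4 BDI (44-170) or BDII (349-460), with a 30 min compound preincubation over a 10-point 3-fold series. IC50 was fitted from percentage peptide binding.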

Where [3] appears, read: SKM-1, 96 h, SKM-1 antiproliferation assay, 4 days, Table C2.
The mark [4] stands for this setting: AlphaScreen assay, Table C2, read-out: BRD4 BDII IC50.
The mark [5] stands for this setting: SKM-1, SKM-1 antiproliferation assay.
Where [6] appears, read: BRD4 BDII AlphaScreen assay, read-out: BRD4 BD2 IC50.

The source of these data is US20250179059A1 (The Regents of the University of California, priority 2021, published 2025).

Where two headings read alike, the source gives them in different places.

As to `CC(=O)NC1(C)CCN(c2cc(-c3cc(F)cc(-c4ccc(-n5ccn(C)c5=O)c(Cl)c4)c3O)ccn2)CC1` [Example 790, N-(1-(4-(3′-chloro-5-fluoro-2-hydroxy-4′-(3-methyl-2-oxo-2,3-dihydro-1H-imidazol-1-yl)-[1,1′-biphenyl]-3-yl)pyridin-2-yl)-4-methylpiperidin-4-yl)acetamide], the GI50 in experiment [1] (setting [3]) was in the range of 0.3 to 30 nM. Also, the concentration for half-maximal inhibition (IC50) in experiment [2] (setting [4]) lay within 0.01 to 1 nM.
The matching figures for `CN1CCN(c2ccc(-c3cccc(-c4cc(N5CCNCC5)c(=O)n(C)c4)c3O)cc2Cl)C1=O` [Example 342, 5-(3′-chloro-2-hydroxy-4′-(3-methyl-2-oxoimidazolidin-1-yl)-[1,1′-biphenyl]-3-yl)-1-methyl-3-(piperazin-1-yl)pyridin-2(1H)-one]: 30 to 300 nM and 1 to 10 nM.
The matching figures for `COCCOc1ncc(-c2cc(F)cc(-c3ccc(N4CCN(C)C4=O)c(Cl)c3)c2O)cc1N1CCNCC1` [Example 393, 1-(3-chloro-5′-fluoro-2′-hydroxy-3′-(6-(2-methoxyethoxy)-5-(piperazin-1-yl)pyridin-3-yl)-[1,1′-biphenyl]-4-yl)-3-methylimidazolidin-2-one]: 30 to 300 nM and 1 to 10 nM.
The matching figures for `Cn1ccn(-c2ccc(-c3cc(F)cc(-c4ccnc(N5CCNC(C(F)(F)F)C5)c4)c3O)cc2Cl)c1=O` (stereo not shown) [Example 454, 1-(3-chloro-5′-fluoro-2′-hydroxy-3′-(2-(3-(trifluoromethyl)piperazin-1-yl)pyridin-4-yl)-[1,1′-biphenyl]-4-yl)-3-methyl-1H-imidazol-2(3H)-one]: 300 to 3000 nM and 1 to 10 nM.
Regarding `CC(C)N1CCC[C@@]12CCN(c1cccc(-c3cc(F)cc(-c4ccc(-n5ccn(C)c5=O)c(Cl)c4)c3O)c1)C2` [Example 966, (S)-1-(3-chloro-5′-fluoro-2′-hydroxy-3″-(1-isopropyl-1,7-diazaspiro[4.4]nonan-7-yl)-[1,1′:3′,1″-terphenyl]-4-yl)-3-methyl-1,3-dihydro-2H-imidazol-2-one], the 50% growth inhibitory concentration (GI50) in experiment [1] (setting [5]) was in the range of 30 to 300 nM. In addition, the IC50 in experiment [2] (setting [6]) was 1 to 10 nM.
For `CC(C)N1CC2CN(c3cccc(-c4cc(F)cc(-c5ccc(-n6ccn(C)c6=O)c(Cl)c5)c4O)c3)CC2C1` (stereo not shown) [Example 946, 1-(3-chloro-5′-fluoro-2′-hydroxy-3″-(5-isopropylhexahydropyrrolo[3,4-c]pyrrol-2(1H)-yl)-[1,1′:3′,1″-terphenyl]-4-yl)-3-methyl-1,3-dihydro-2H-imidazol-2-one], in experiment [1] (setting [5]), the concentration for 50% growth inhibition (GI50) lay in the range of 30 to 300 nM. For the same molecule, the half-inhibitory concentration (IC50) in experiment [2] (setting [6]) fell in the range of 1 to 10 nM.
In experiment [1] (setting [3]), `CC(=O)Nc1ccc(-c2cccc(-c3cc(OC4CCC(O)CC4)nc(N4CCNCC4)c3)c2O)cc1F` (stereo not shown) [Example 361, N-(3-fluoro-2′-hydroxy-3′-(2-((4-hydroxycyclohexyl)oxy)-6-(piperazin-1-yl)pyridin-4-yl)-[1,1′-biphenyl]-4-yl)acetamide] displayed a 50% growth inhibitory concentration (GI50) of 30 to 300 nM. The IC50 in experiment [2] (setting [4]) lay within 10 to 100 nM.
The matching figures for `Cc1ncc(-c2cc(F)cc(-c3ccc(-n4ccn(C)c4=O)c(Cl)c3)c2O)cc1N1CC2CCC(C1)N2C(C)C` [Example 835, 1-(3-chloro-5′-fluoro-2′-hydroxy-3′-(5-(8-isopropyl-3,8-diazabicyclo[3.2.1]octan-3-yl)-6-methylpyridin-3-yl)-[1,1′-biphenyl]-4-yl)-3-methyl-1H-imidazol-2(3H)-one]: 0.3 to 30 nM and 1 to 10 nM.
`CC(C)N1CCCN(c2cc(-c3cc(F)cc(-c4ccc(-n5ccn(C)c5=O)c(Cl)c4)c3O)ccn2)CC1` [Example 678, 1-(3-chloro-5′-fluoro-2′-hydroxy-3′-(2-(4-isopropyl-1,4-diazepan-1-yl)pyridin-4-yl)-[1,1′-biphenyl]-4-yl)-3-methyl-1H-imidazol-2(3H)-one]: in experiment [1] (setting [3]), the 50% growth inhibitory concentration (GI50) lay within 0.3 to 30 nM. Moreover, the 50% inhibitory concentration (IC50) in experiment [2] (setting [4]) is 0.01 to 1 nM.
The matching figures for `C[C@@H]1CN(c2cc(-c3cc(F)cc(-c4ccc(-n5ccn(C)c5=O)c(Cl)c4)c3O)ccc2F)CCN1` [Example 677, (R)-1-(3-chloro-4″,5′-difluoro-2′-hydroxy-3″-(3-methylpiperazin-1-yl)-[1,1′:3′,1″-terphenyl]-4-yl)-3-methyl-1H-imidazol-2(3H)-one]: 0.3 to 30 nM and 0.01 to 1 nM.
`Cc1ncc(-c2cc(F)cc(-c3ccc(-n4ccn(C)c4=O)c(Cl)c3)c2O)cc1N1CCN(C2CCOC2)CC1` (stereo not shown) [Example 890]: the GI50 in experiment [1] (setting [5]) was 0.3 to 30 nM. Moreover, the IC50 in experiment [2] (setting [6]) fell in the range of 1 to 10 nM.
Take `CN1C2CCC1CN(c1cncc(-c3cc(F)cc(-c4ccc(-n5ccn(C)c5=O)c(Cl)c4)c3O)c1)C2` [Example 514, 1-(3-chloro-5′-fluoro-2′-hydroxy-3′-(5-(8-methyl-3,8-diazabicyclo[3.2.1]octan-3-yl)pyridin-3-yl)-[1,1′-biphenyl]-4-yl)-3-methyl-1H-imidazol-2(3H)-one]: the GI50 in experiment [1] (setting [3]) was in the range of 0.3 to 30 nM. The IC50 in experiment [2] (setting [4]) was 1 to 10 nM.
The matching figures for `COc1ncc(-c2cc(F)cc(-c3ccc(-n4ccn(C)c4=O)c(Cl)c3)c2O)cc1N1CCN(C(C)C)CC1` [Example 738, 1-(3-chloro-5′-fluoro-2′-hydroxy-3′-(5-(4-isopropylpiperazin-1-yl)-6-methoxypyridin-3-yl)-[1,1′-biphenyl]-4-yl)-3-methyl-1H-imidazol-2(3H)-one]: 0.3 to 30 nM and 0.01 to 1 nM.
`Cn1ccn(-c2ccc(-c3cc(F)cc(-c4cc(N5CCC[C@@H](N)C5)c5cn[nH]c5c4)c3O)cc2Cl)c1=O` [Example 586, (R)-1-(3′-(4-(3-aminopiperidin-1-yl)-1H-indazol-6-yl)-3-chloro-5′-fluoro-2′-hydroxy-[1,1′-biphenyl]-4-yl)-3-methyl-1H-imidazol-2(3H)-one] yielded a GI50 in experiment [1] (setting [3]) of 0.3 to 30 nM. In addition, the half-maximal inhibitory concentration (IC50) in experiment [2] (setting [4]) is 1 to 10 nM.
`CC(=O)Nc1ccc(-c2cc(C)nc(-c3cccc(N4CCN(C(C)(C)C)CC4)c3)c2O)cc1Cl` [Example 1007, N-(4-(2-(3-(4-(tert-butyl)piperazin-1-yl)phenyl)-3-hydroxy-6-methylpyridin-4-yl)-2-chlorophenyl)acetamide] registered a GI50 in experiment [1] (setting [5]) of 0.3 to 30 nM. The concentration for half-maximal inhibition (IC50) in experiment [2] (setting [6]) is 1 to 10 nM.
`CN1CCCN(c2ccc(-c3cccc(-c4ccnc(N5CCNCC5)c4)c3O)cc2F)C1=O` [Example 288, 1-(3-fluoro-2′-hydroxy-3′-(2-(piperazin-1-yl)pyridin-4-yl)-[1,1′-biphenyl]-4-yl)-3-methyltetrahydropyrimidin-2(1H)-one] showed a 50% growth inhibitory concentration (GI50) in experiment [1] (setting [3]) of at least 3000 nM. Moreover, in experiment [2] (setting [4]), the IC50 was over 100 nM.
In experiment [1] (setting [3]), `CC(=O)NCCNc1ncc(-c2cc(F)cc(-c3ccc(N4CCN(C)C4=O)c(Cl)c3)c2O)cc1N1CCNCC1` [Example 395, N-(2-((5-(3′-chloro-5-fluoro-2-hydroxy-4′-(3-methyl-2-oxoimidazolidin-1-yl)-[1,1′-biphenyl]-3-yl)-3-(piperazin-1-yl)pyridin-2-yl)amino)ethyl)acetamide] gave a GI50 of 30 to 300 nM. In addition, the IC50 in experiment [2] (setting [4]) lay in the range of 1 to 10 nM.
`Cn1ccn(-c2ccc(-c3cc(F)cc(-c4cc(N5CC[C@H](N)C5)c5nn[nH]c5c4)c3O)cc2Cl)c1=O` [Example 537, (S)-1-(3′-(4-(3-aminopyrrolidin-1-yl)-1H-benzo[d][1,2,3]triazol-6-yl)-3-chloro-5′-fluoro-2′-hydroxy-[1,1′-biphenyl]-4-yl)-3-methyl-1H-imidazol-2(3H)-one]: the GI50 in experiment [1] (setting [3]) lay in the range of 30 to 300 nM. Also, in experiment [2] (setting [4]), the IC50 fell in the range of 1 to 10 nM.
Molecule `CN1CCN(c2ccc(-c3cc(F)cc(-c4cnc(-c5ccn[nH]5)c(N5CCNCC5)c4)c3O)cc2Cl)C1=O` [Example 391, 1-(3-chloro-5′-fluoro-2′-hydroxy-3′-(5-(piperazin-1-yl)-6-(1H-pyrazol-5-yl)pyridin-3-yl)-[1,1′-biphenyl]-4-yl)-3-methylimidazolidin-2-one] had a GI50 in experiment [1] (setting [3]) of 30 to 300 nM. In addition, in experiment [2] (setting [4]), the IC50 was 1 to 10 nM.
The matching figures for `Cn1ccn(-c2ccc(-c3cc(F)cc(-c4ccnc(N5CCNC(CCN)C5)c4)c3O)cc2Cl)c1=O` (stereo not shown) [Example 697, 1-(3′-(2-(3-(2-aminoethyl)piperazin-1-yl)pyridin-4-yl)-3-chloro-5′-fluoro-2′-hydroxy-[1,1′-biphenyl]-4-yl)-3-methyl-1H-imidazol-2(3H)-one]: 30 to 300 nM and 1 to 10 nM.
The matching figures for `Cn1ccn(-c2ccc(-c3cc(F)cc(-c4ccnc(N5CC6(CCNC6)CC5=O)c4)c3O)cc2Cl)c1=O` (stereo not shown) [Example 705, 2-(4-(3′-chloro-5-fluoro-2-hydroxy-4′-(3-methyl-2-oxo-2,3-dihydro-1H-imidazol-1-yl)-[1,1′-biphenyl]-3-yl)pyridin-2-yl)-2,7-diazaspiro[4.4]nonan-3-one]: 30 to 300 nM and 0.01 to 1 nM.
The matching figures for `Cc1cc(-c2cc(F)cc(-c3ccc(-n4ccn(C)c4=O)c(Cl)c3)c2O)cc(N2CC[C@H](N)C2)n1` [Example 517, (S)-1-(3′-(2-(3-aminopyrrolidin-1-yl)-6-methylpyridin-4-yl)-3-chloro-5′-fluoro-2′-hydroxy-[1,1′-biphenyl]-4-yl)-3-methyl-1H-imidazol-2(3H)-one]: 0.3 to 30 nM and 0.01 to 1 nM.
As for `Cn1ccn(-c2ccc(-c3ccnc(-c4cnc(N)c(N5CCN(C(C)(C)C)CC5)c4)c3O)cc2Cl)c1=O` [Example 984, 1-(4-(6′-amino-5′-(4-(tert-butyl)piperazin-1-yl)-3-hydroxy-[2,3′-bipyridin]-4-yl)-2-chlorophenyl)-3-methyl-1H-imidazol-2(3H)-one], the GI50 in experiment [1] (setting [5]) lay in the range of 0.3 to 30 nM. The half-maximal inhibitory concentration (IC50) in experiment [2] (setting [6]) was 10 to 100 nM.
